Test results taken from patent publication US9012402B1, “Gel for topical delivery of NSAIDs to provide relief of musculoskeletal pain and methods for its preparation” (priority 2014, dated 2015).

How the values were obtained:
[1] = topical, average of seven clinical studies; cited from earlier work
[2] = Fraction of drug unionized at a given pH; type: physicochemical
[3] = cited from earlier work

SMILES	study participants who experienced relief of acute pain [1]	fraction unionized ([2]; at pH 3.5)	fraction unionized ([2]; at pH 6.0)	fraction in the unionized form ([2]; pH of 5 or less)	fraction in unionized form ([2]; pH of 6.5)	Log P (octanol: water) [3]
O=C(O)Cc1ccccc1Nc1c(Cl)cccc1Cl [diclofenac]	52%	–	–	–	–	–
CC(C)Cc1ccc(C(C)C(=O)O)cc1 (stereo not shown) [ibuprofen]	–	88.8%	2.45%	> 20%	0.79%	–
CC(C(=O)O)c1cccc(C(=O)c2ccccc2)c1 (stereo not shown) [Ketoprofen, 2-(3-benzoylphenyl)-propionic acid]	73%	–	–	–	–	2.68
